Entries after “also recorded” stand apart in the source; their conditions may differ. Each block holds one compound with its values, some of them ahead of it.
Legend:
[1] = test system: guinea pig isolated heart; assay: A-V nodal conduction time / S-H interval, isolated perfused heart; conditions: for second-degree AV block: CPA at 30 nM, Compound 6 at all tested concentrations; for concentration causing an increase of the S-H interval by 13 msec: comparable submaximal responses
Protocol: This method evaluates the potencies of compounds to cause coronary vasodilation (A2A AdoR response) and to prolong A-V nodal conduction time (A1 AdoR response).
Rats and guinea pigs, of either sex weighing from 230 to 260 grams and 300 to 350 grams, respectively, were used in this study. Animals were anesthetized by peritoneal injection of a cocktail containing ketamine and xylazine (ketamine 100 mg, xylazine 20 mg/ml). The chest was opened and the heart quickly removed. The heart was briefly rinse in ice-cold Krebs-Henseleit solution (see below), and the aorta cannulated. The heart was then perfused at a flow rate of 10 ml/min with modified Krebs-Henseleit (K-H) solution containing NaCl 117.9, KCl 4.5, CaCl2 2.5, MgSO4 1.18, KH2PO4 1.18, pyruvate 2.0 mmol. The K-H solution (pH 7.4) was gassed continuously with 95% O2 and 5% CO2 and warmed to 35±0.50° C. The heart was electrically paced at a fixed cycle length of […] (250 beats/min) using a bipolar electrode place on the left atrium. The electrical stimuli were generated by a Grass stimulator (Model S48, W. Warwick, R.I.) and delivered through a Stimuli Isolation Unit (Model SIU5, Astro-Med, Inc., NY) as square-wave pulses of 3-msec in duration and amplitude of at least twice the threshold intensity.
A1 adenosine receptor-mediated depression of A-V nodal conduction time (negative dromotropic effect) was measured. Atrial and ventricular surface electrograms in rats and His bundle electrogram in guinea pigs, were recorded during constant atrial pacing.
The effects of compounds on coronary conductance (A2A effect) and atrioventricular conduction time or stimulus-to-His-bundle (S-H) interval (A1 effect) was then determined. Hearts were instrumented for continuous recording of coronary perfusion pressure (A2A response) and atrioventricular (A-V) conduction time or S-H interval (A1 response). In each experiment, concentration-response relationship of compounds to increase coronary conductance and to prolong A-V conduction time or S-H interval was determined. After control measurements of CPP and A-V conduction time or S-H interval were made, progressive higher concentrations of the compound studied was administered until maximal coronary vasodilation and A-V nodal conduction time or S-H interval prolongation were achieved.
Guinea pigs (Hartley) of either sex weighing 300-350 g were anaesthetized with methoxyflurane and killed by decapitation. The chest was cut open and the heart was removed quickly and rinsed in ice-cold modified Krebs-Henseleit (K-H) solution. The contents of the modified K-H solution were (in mM): NaCl 117.9, KCl 4.8, CaCl2 2.5, MgSO2 1.18, KH2PO4 1.2, Na2 EDTA 0.5, ascorbic acid 0.14, dextrose 5.5, pyruvic acid (sodium salt) 2.0, and NaHCO3 25. The K-H solution was continuously gassed with 95% oxygen and 5% CO2, and the pH was adjusted to a value of 7.4. To perfuse the heart by the Langendorff method, the transected aorta was slid onto a glass cannula and secured by a ligature. Retrograde perfusion of the aorta was initiated immediately at a constant flow of 10 ml min-′ with modified K-H solution warmed to 36.0±0.5° C. A side port in the cannula was used to connect the perfusion line to a Gould pressure transducer for measurement of coronary perfusion pressure. Coronary perfusion pressure was continuously recorded on a strip chart (Gould RS3400, Cleveland, Ohio) throughout each experiment. Coronary conductance (in ml min^−1 mmHg^−1) was calculated as the ratio of coronary flow (10 ml min^−1) to perfusion pressure (mm Hg). To facilitate the exit of fluid from the left ventricle, the leaflets of the mitral valve were trimmed with fine spring-handled scissors. When appropriate, hearts were paced at a constant rate using external electrodes. […]

[2] = test system: guinea pig isolated heart; assay: Coronary conductance, isolated heart; conditions: for EC50: Cavia porcellus; for maximal increase of coronary conductance: this study, Compound 6 at 100 μM
Protocol: Coronary perfusion pressure (CPP) was measured using a pressure transducer, connected to the aortic cannula via a T-connector positioned approximately 3 cm above the heart. Coronary perfusion pressure was monitored throughout the experiment and recorded either on a chart recorder (Gould Recorder 2200S) or a computerized recording system (PowerLab/4S, ADInstruments Pty Ltd, Australia). Only hearts with CPP ranging from 60 to 85 mmHg (in the absence of drugs) were used in the study. Coronary conductance (in ml/min/mmHg) was calculated as the ratio between coronary perfusion rate (10 ml/min) and coronary perfusion pressure.
Guinea pigs (Hartley) of either sex weighing 300-350 g were anaesthetized with methoxyflurane and killed by decapitation. The chest was cut open and the heart was removed quickly and rinsed in ice-cold modified Krebs-Henseleit (K-H) solution. The contents of the modified K-H solution were (in mM): NaCl 117.9, KCl 4.8, CaCl2 2.5, MgSO2 1.18, KH2PO4 1.2, Na2 EDTA 0.5, ascorbic acid 0.14, dextrose 5.5, pyruvic acid (sodium salt) 2.0, and NaHCO3 25. The K-H solution was continuously gassed with 95% oxygen and 5% CO2, and the pH was adjusted to a value of 7.4. To perfuse the heart by the Langendorff method, the transected aorta was slid onto a glass cannula and secured by a ligature. Retrograde perfusion of the aorta was initiated immediately at a constant flow of 10 ml min-′ with modified K-H solution warmed to 36.0±0.5° C. A side port in the cannula was used to connect the perfusion line to a Gould pressure transducer for measurement of coronary perfusion pressure. Coronary perfusion pressure was continuously recorded on a strip chart (Gould RS3400, Cleveland, Ohio) throughout each experiment. Coronary conductance (in ml min^−1 mmHg^−1) was calculated as the ratio of coronary flow (10 ml min^−1) to perfusion pressure (mm Hg). To facilitate the exit of fluid from the left ventricle, the leaflets of the mitral valve were trimmed with fine spring-handled scissors. When appropriate, hearts were paced at a constant rate using external electrodes. After completion of dissection and instrumentation (see below) for measurement of either atrial rate, stimulus-to-His bundle (S-H) interval, monophasic action potentials, or coronary perfusion pressure, each heart was allowed to equilibrate for 20-40 min before the administration of drug. Experimental interventions were always preceded and followed by control measurements. Criteria for exclusion of hearts from study were (1) a coronary perfusion pressure of less than 50 mm Hg, (2) absence of a stable coronary perfusion pressure during the equilibration period, and (3) inability to pace a heart at a constant rate throughout an experiment.

[3] = test system: Adenosine A1 receptor; assay: A1-agonist stimulated [35S]GTPγS binding to G proteins; format: biochemical; conditions: for GTPγS: normalized to the full agonist CPA
Protocol: At the end of the incubation, each suspension was filtered and the retained radioactivity determined as described above.

EC50 ([2]; estimate may be falsely low, limited solubility, read-out: concentration of half-maximal response (EC50), increase of coronary conductance): 31 µM
Compound: CNC(=O)OC[C@H]1OC(n2cnc3c(N[C@@H]4CCOC4)ncnc32)[C@H](O)[C@@H]1O (stereo partly drawn) [Compound 6 of Example 2, [(5-{6-[((3R)oxolan-3-yl)amino]purin-9-yl}(3 S,2R,4R)-3,4-dihydroxyoxolan-2-yl)methoxy]-N-methylcarboxamide]
concentration at which effect on S-H interval reached a maximum [1]: 30 to 100 µM
antagonism of S-H interval prolongation induced by CPA ([1]; 10 μM compound): partially reversed the S-H interval prolongation induced by CPA
increase of the S-H interval ([1]; 10 μM compound): 12 ms
increase of the S-H interval ([1]; 10 μM compound in the presence of 50 nM CPX): 4 ms
decrease of S-H interval ([1]; 10 μM compound in the presence of iodotubercidin and EHNA): 16 ms
S-H interval ([1]; 10 μM compound in the presence of iodotubercidin and EHNA (80±6 msec before)): 64 ± 2 ms
S-H interval ([1]; 10 μM compound, control 46±2 msec): 58 ± 2 ms
second-degree AV block [1]: did not cause second-degree A-V block in any heart
EC50 ([1]; Cavia porcellus, electrically paced heart, read-out: EC50 to increase the S-H interval): 3.1 µM
concentration causing an increase of the S-H interval by 13 msec [1]: 10,000 nM
S-H interval at maximum effect ([1]; control 45±1 msec): 60 ± 3 ms
maximum increase of S-H interval ([1]; electrically paced heart): 33%
adenosine concentration causing second-degree AV block ([1]; presence of 4 μM Compound 6 of Example 2): 8 µM
adenosine concentration causing second-degree AV block ([1]; presence of 10 μM Compound 6 of Example 2): 20 µM
coronary conductance ([2]; 10 μM compound, control 0.17±0.01): 0.185±0.01 ml min^−1 mmHg^−1
coronary conductance ([2]; 100 μM compound, control 0.17±0.01): 0.26±0.02 ml min^−1 mmHg^−1
effect on coronary conductance ([2]; concentrations ≦10 μM): did not significantly change the coronary conductance
maximal increase of coronary conductance [2]: 0.09±0.01 ml min^−1 mmHg^−1

Compound: OC[C@H]1O[C@@H](n2cnc3c(NC4CCCC4)ncnc32)[C@H](O)[C@@H]1O [CPA, N^6-cyclopentyladenosine, reference compound]
S-H interval ([1]; CPA 30 nM, control 44±1 msec): 87 ± 2 ms
S-H interval ([1]; CPA 10 μM as printed, control 42±1 msec): 59 ± 4 ms
S-H interval ([1]; CPA 15 μM as printed, control 42±1 msec): 81 ± 6 ms
S-H interval ([1]; CPA 20 μM as printed, control 42±1 msec): 103 ± 8 ms
second-degree AV block [1]: second-degree AV block occurred in all hearts; also recorded: caused second-degree AV block in all hearts
S-H interval Efficacy ([1]; Table 5, 2759 = CVT-2759): Full (Potent)
concentration causing an increase of the S-H interval by 13 msec [1]: 10 nM
coronary conductance ([2]; CPA maximal, control 0.16±0.01): 0.33±0.01 ml min^−1 mmHg-^1
EC50 ([2]; read-out: concentration of half-maximal increase of coronary conductance): 0.071 µM
maximal increase of coronary conductance [2]: 0.17±0.02 ml min^−1 mmHg^−1
GTPγS ([3]; Table 1, compounds of Example 2): 100%
GTPγS ([3]; Table 2, compounds of Example 3): 100%
GTPγS ([3]; Table 3, compounds of Example 4): 100%
GTPγS (% of CPA) ([3]; Table 5): 100 % of CPA

— patent US6576620B2, “Method of identifying partial adenosine A1 receptor agonists” (CV Therapeutics, Inc., priority 1999, dated 2003)
